Laboratory results reported in US20210070779A1, “BORON-CONTAINING SMALL MOLECULES AS ANTI-INFLAMMATORY AGENTS” (Anacor Pharmaceuticals, Inc., priority 2013, published 2021).
Where two headings read alike, the source gives them in different places.

Molecular target: Human PDE4 (PDE4B2 truncated catalytic domain) (Homo sapiens, UniProt Q07343)
Assay: Measurement of Phosphodiesterase 4 (PDE4) inhibition, zinc and barium precipitation method
Type: biochemical
Procedure: Measurement of Phosphodiesterase 4 (PDE4) Inhibition
Human PDE4 enzymatic activity was assayed using the zinc and barium precipitation method of Saldou, N. et al (1998: Cell Signal, vol 10, No. 6, pp 427-440). The assay was performed in 96-well v-bottom plates (BrandPlates, Wertheim, Germany). PDE4B2 truncated is the catalytic domain including the UCR2 and a portion of the UCR1 domain of PDE4B2 (23.4 mg/mL) from Proteros Biostructures. Final concentration of enzyme in the assay was 0.3 pM. Stocks of the tested compounds were prepared in 100% DMSO at a concentration of 40 mM. The 100-μL reaction volume consisted of 45 mM Tris-HCl, pH 7.5, 12.5 mM MgSO4, 0.3 μM […] (Sigma, St Louis, Mo.) supplemented with 0.2 μM ^3H-cAMP (Perkin Elmer, Waltham, Mass.). Compounds were pre-incubated with enzyme at room temperature for 20 min prior to initiating the reaction by adding substrate (cAMP supplemented with ^3H-cAMP). After incubation at 30° C. for 6 minutes, the reaction was stopped by the addition of 50 μL fresh made 21.5 mM ZnSO4.7H2O (Alfa Aesar, Ward Hill, Mass.) containing 5 mM AMP as a co-precipitant. Total AMP was precipitated by the addition of 50 μL 17.5 mM Ba(OH)2, prepared fresh daily in water. The precipitate was transferred and collected by filtration onto a 96-well GF/B plate (Millipore, Ireland). The plates were washed five times with cold wash solution (1 mM NaOH, 100 mM NaCl) and dried at 65° C. The bottoms of plates were sealed with clear tapes (Millipore Co-operation, Billerica, Mass.) and 40 μL of scintillation cocktail (Perkin Elmer Waltham, Mass.). The plates were top sealed and radioactivity was measured with an Elmer Packard TopCount scintillation counter.

[1] = PDE4B2 truncated, 0.3 pM enzyme, 3H-cAMP substrate, 30° C. 6 minutes, read-out: PDE4 IC50

Sequence of Human PDE4 (PDE4B2 truncated catalytic domain) (Q07343 212-659): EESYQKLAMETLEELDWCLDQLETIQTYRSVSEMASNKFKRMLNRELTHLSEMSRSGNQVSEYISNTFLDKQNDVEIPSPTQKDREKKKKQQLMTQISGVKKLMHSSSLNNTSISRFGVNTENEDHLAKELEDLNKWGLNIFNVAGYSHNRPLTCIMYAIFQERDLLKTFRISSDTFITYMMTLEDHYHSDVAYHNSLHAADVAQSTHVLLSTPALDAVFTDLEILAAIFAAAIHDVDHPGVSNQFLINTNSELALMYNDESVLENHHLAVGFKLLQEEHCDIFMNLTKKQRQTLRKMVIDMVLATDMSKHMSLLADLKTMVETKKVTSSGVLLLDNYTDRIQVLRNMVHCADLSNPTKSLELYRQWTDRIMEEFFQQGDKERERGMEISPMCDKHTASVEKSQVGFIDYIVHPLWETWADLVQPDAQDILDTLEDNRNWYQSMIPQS

IC50 [1] | SMILES | IC50
 | N#Cc1ccc(C(=O)c2ccc3c(c2)COB3O)cc1 [A, 4-(1-hydroxy-1,3-dihydrobenzo[c][1,2]oxaborole-5-carbonyl)benzonitrile] | 504 nM
1730 nM | N#Cc1ccc(C(O)c2ccc3c(c2)COB3O)cc1 (stereo not shown) [B, 4-(hydroxy(1-hydroxy-1,3-dihydrobenzo[c][1,2]oxaborol-5-yl)methyl)benzonitrile] | 
1770 nM | N#Cc1ccc(Cc2ccc3c(c2)COB3O)cc1 [C, 4-((1-hydroxy-1,3-dihydrobenzo[c][1,2]oxaborol-5-yl)methyl)benzonitrile] | 
62 nM | N#Cc1ccc([S+]([O-])c2ccc3c(c2)COB3O)cc1 (stereo not shown) [D, 4-(1-hydroxy-1,3-dihydrobenzo[c][1,2]oxaborol-5-ylsulfinyl)benzonitrile] | 
